Measured values as given in patent publication US9980948B2, “Azaindole derivative having AMPK-activating activity” (Shionogi & Co., Ltd., priority 2014, dated 2018).

Molecular target: T1, Human AMPK α2β2γ1 (Homo sapiens, UniProt O43741+P54646)
T1 construct: The full length cDNAs of human AMPK β2 (NM_005399.3) and human AMPK α2 (NM_006252.3); The full length cDNAs of human AMPK β2 (NM_005399.3); the full length cDNA of human AMPK γ1 (NM_002733.3) had been inserted into pET28b(+); 6xHis (N); made in house; host or cells: Escherichia coli BL21 CodonPlus (DE3)-RTL (AMPK); BL21 Star (DE3) (CaMKKβ)
Test: Test Example 2: evaluation of an activator for AMP-activated protein kinase (AMPK), human AMPK α2β2γ1 phosphorylated with CaMKK2, FL-Peptide 7 mobility shift
Assay type: biochemical
Details: for EC150 (compound concentration showing 150% relative to the control (100%)): human AMPK α2β2γ1, 0.2 mM ATP final, 25° C., 2 hours; for Emax: read-out: Emax (maximum rate of increase in activity within the measurement range)
Protocol: The full length cDNAs of human AMPK β2 (NM_005399.3) and human AMPK α2 (NM_006252.3) were inserted into the MCS1 and MCS2 of the pETDuet-1 vector to prepare a human AMPK β2 and human AMPK α2 (6× His tag at the 5′ terminus) expressing plasmid. The plasmid was cotransfected with an expression plasmid, in which the full length cDNA of human AMPK γ1 (NM_002733.3) had been inserted into pET28b(+), into BL21 CodonPlus (DE3)-RTL to obtain an expression strain. The expression strain was cultured in TB medium, followed by induction with 0.5 mM IPTG, and cultured at 25° C. for 3 hours and then harvested.
An expression vector, in which the full length cDNA of human CAMKK β (NM_172226.1) had been inserted into pGEX-6P-3, was transfected into BL21 Star (DE3). The expression strain was cultured in TB medium, followed by induction with 0.5 mM IPTG, and cultured at 25° C. for 3 hours and then harvested.
Thus, phosphorylation treatment was carried out as pretreatment.
Human AMPK α2β2γ1 in an amount to give a conversion rate of approximately 10% by reaction for 2 hours, and CaMKK2 in an amount capable of sufficiently imparting activity to AMPK for one hour were mixed in a buffer solution consisting of a 50 mM HEPES-NaOH buffer solution (pH 7.0), 100 mM NaCl, 5 mM magnesium chloride, 0.1% bovine serum albumin, 0.2 mM sodium orthovanadate(V), 1 mM ethylene glycol-bis(2-aminoethyl ether)-N,N,N′,N′-tetraacetic acid (EGTA), 5 mM disodium β-glycerophosphate, 1 mM dithiothreitol and 0.2 mM ATP, and the obtained liquid was left to stand at 25° C. for 1 to 1.5 hours to sufficiently phosphorylate AMPK.
The obtained liquid was left to stand for 10 minutes.
The obtained liquid was allowed to react at 25° C. for 2 hours, and 10 μl of 20 mM EDTA was then added thereto to stop the reaction.
To detect phosphorylated fluorescent substrates, the reaction liquid was applied to a measuring device, LabChip EZ Reader II manufactured by Caliper Life Science, Inc., for detecting fluorescence by using differences in mobility due to differences in charge. The setting conditions for the device were pressure, −1.5 PSI; upstream voltage, −2250 V; downstream voltage, −400 V; post sample buffer sip time, 40 seconds; final delay, 120 seconds; and peak order, Product First.
A conversion rate was calculated from the peak heights of the resulting substrate and product. The conversion rate when not containing a compound was used as a control, and a concentration dependent curve was made by plotting the rate of increase in activity to the control at each concentration of a compound.

[1] = human AMPK α2β2γ1, relative to control (100%)

T1 sequence (P54646 whole entry): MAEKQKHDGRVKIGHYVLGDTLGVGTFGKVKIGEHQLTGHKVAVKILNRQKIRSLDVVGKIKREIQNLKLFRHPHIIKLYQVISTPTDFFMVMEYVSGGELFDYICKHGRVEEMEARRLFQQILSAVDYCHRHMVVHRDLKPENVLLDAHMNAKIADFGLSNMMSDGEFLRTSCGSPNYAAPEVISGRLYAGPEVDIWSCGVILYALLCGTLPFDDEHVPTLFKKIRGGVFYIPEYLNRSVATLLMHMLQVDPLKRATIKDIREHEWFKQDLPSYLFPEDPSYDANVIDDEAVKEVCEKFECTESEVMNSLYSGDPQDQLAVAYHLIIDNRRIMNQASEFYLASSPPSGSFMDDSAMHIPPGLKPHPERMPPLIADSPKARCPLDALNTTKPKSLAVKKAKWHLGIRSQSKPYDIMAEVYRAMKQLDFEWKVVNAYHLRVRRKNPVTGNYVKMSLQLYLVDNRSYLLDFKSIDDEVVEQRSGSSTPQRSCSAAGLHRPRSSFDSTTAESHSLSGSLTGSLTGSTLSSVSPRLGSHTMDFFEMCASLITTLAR
T1 sequence (O43741 whole entry): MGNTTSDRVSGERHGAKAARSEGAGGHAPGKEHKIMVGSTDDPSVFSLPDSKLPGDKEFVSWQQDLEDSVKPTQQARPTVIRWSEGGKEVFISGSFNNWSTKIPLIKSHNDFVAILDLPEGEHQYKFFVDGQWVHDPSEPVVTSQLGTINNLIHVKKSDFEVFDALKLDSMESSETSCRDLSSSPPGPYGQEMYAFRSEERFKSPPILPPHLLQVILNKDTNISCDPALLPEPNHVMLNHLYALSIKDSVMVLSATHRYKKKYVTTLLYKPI
T1 sequence (P54619 whole entry partner): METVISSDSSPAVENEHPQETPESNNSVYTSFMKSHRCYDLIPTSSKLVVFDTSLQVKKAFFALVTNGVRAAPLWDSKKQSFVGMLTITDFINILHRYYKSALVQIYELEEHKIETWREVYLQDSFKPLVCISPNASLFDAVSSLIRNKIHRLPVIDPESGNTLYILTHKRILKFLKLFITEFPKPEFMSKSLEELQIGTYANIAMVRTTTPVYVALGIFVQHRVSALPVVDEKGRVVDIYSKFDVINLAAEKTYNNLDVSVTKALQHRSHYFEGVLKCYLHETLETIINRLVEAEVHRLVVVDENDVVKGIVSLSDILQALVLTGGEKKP

## CN=S(C)(=O)c1ccc(-c2ccc(-c3nc4cc(O[C@@H]5CO[C@H]6[C@@H]5OC[C@H]6O)[nH]c4cc3C(F)(F)F)cc2)cc1 (some centres unmarked) [Compound I-4-18]
  EC150 (compound concentration showing 150% relative to the control (100%)): 9.5 nM
[1]
  Emax: 598%

## CS(=O)(=NCCO)c1ccc(-c2ccc(-c3nc4cc(O[C@@H]5CO[C@H]6[C@@H]5OC[C@H]6O)[nH]c4cc3F)cc2)cc1 (some centres unmarked) [Compound I-4-31]
  EC150 (compound concentration showing 150% relative to the control (100%)): 3.1 nM
[1]
  Emax: 674%

## CNS(=O)(=O)Nc1ccc(-c2ccc(-c3nc4cc(O[C@@H]5CO[C@H]6[C@@H]5OC[C@H]6O)[nH]c4cc3F)cc2)cc1 [Compound I-4-34]
  EC150 (compound concentration showing 150% relative to the control (100%)): 4 nM
[1]
  Emax: 431%

## COC(=O)Nc1ccc(-c2ccc(-c3nc4cc(O[C@@H]5CO[C@H]6[C@@H]5OC[C@H]6O)[nH]c4cc3F)cc2)cc1 [Compound I-4-35]
  EC150 (compound concentration showing 150% relative to the control (100%)): 10 nM
[1]
  Emax: 447%

## CN=S(C)(=O)c1ccc(-c2ccc(-c3nc4cc(O[C@@H]5CO[C@H]6[C@@H]5OC[C@H]6O)[nH]c4cc3F)cc2)cc1 (some centres unmarked) [Compound I-4-36]
  EC150 (compound concentration showing 150% relative to the control (100%)): 2.3 nM
[1]
  Emax: 510%

## CN=S(C)(=O)c1ccc(-c2ccc(-c3nc4cc(O[C@@H]5CO[C@H]6[C@@H]5OC[C@H]6O)[nH]c4cc3F)cc2)cc1 (some centres unmarked) [Compound I-4-37]
  EC150 (compound concentration showing 150% relative to the control (100%)): 1.5 nM
[1]
  Emax (maximum rate of increase in activity within the measurement range): 502%

## CNS(=O)(=O)c1ccc(-c2ccc(-c3nc4cc(O[C@@H]5CO[C@H]6[C@@H]5OC[C@H]6O)[nH]c4cc3F)cc2)cc1 [Compound I-4-39]
  EC150 (compound concentration showing 150% relative to the control (100%)): 1.9 nM
[1]
  Emax: 479%

## CS(=O)(=O)c1ccc(-c2ccc(-c3nc4cc(O[C@@H]5CO[C@H]6[C@@H]5OC[C@H]6O)[nH]c4cc3F)cc2)nc1 [Compound I-4-41]
  EC150 (compound concentration showing 150% relative to the control (100%)): 1.4 nM
[1]
  Emax: 441%

## CCS(C)(=O)=Nc1ccc(-c2ccc(-c3nc4cc(O[C@@H]5CO[C@H]6[C@@H]5OC[C@H]6O)[nH]c4cc3F)cc2)cc1 (some centres unmarked) [Compound I-4-43]
  EC150 (compound concentration showing 150% relative to the control (100%)): 1.3 nM
[1]
  Emax: 453%

## NC(=O)Nc1ccc(-c2ccc(-c3nc4cc(O[C@@H]5CO[C@H]6[C@@H]5OC[C@H]6O)[nH]c4cc3F)cc2)cc1 [Compound I-4-44]
  EC150 (compound concentration showing 150% relative to the control (100%)): 1.6 nM
[1]
  Emax: 518%

## COC(=O)NC1CCN(c2ccc(-c3nc4cc(O[C@@H]5CO[C@H]6[C@@H]5OC[C@H]6O)[nH]c4cc3F)cc2)CC1 [Compound I-4-53]
  EC150 (compound concentration showing 150% relative to the control (100%)): 10 nM
[1]
  Emax: 509%

## CS(=O)(=O)Nc1ccc(-c2ccc(-c3nc4cc(O[C@@H]5CO[C@H]6[C@@H]5OC[C@H]6O)[nH]c4cc3F)cc2)nc1 [Compound I-4-56]
  EC150 (compound concentration showing 150% relative to the control (100%)): 5.8 nM
[1]
  Emax: 396%

## COC(=O)NC1CC=C(c2ccc(-c3nc4cc(O[C@@H]5CO[C@H]6[C@@H]5OC[C@H]6O)[nH]c4cc3F)cc2)CC1 (some centres unmarked) [Compound I-4-58]
  EC150 (compound concentration showing 150% relative to the control (100%)): 4.3 nM
[1]
  Emax: 486%
